Test results as given in the supplement of paper PMC8617591.

What was measured:
[1] = test system: Mycobacterium tuberculosis Erdman (autoluminescent); assay: AUC25, normalised area under dose response up to IC25 (fraction (0-1)); higher = more potent at low dose
Procedure: (§1)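 DiaMOND equipotent two-drug combination dose responses against autoluminescent M. tuberculosis Erdman in 8 in vitro models. Read-out is OD600, or luminescence for the intracellular and dormancy models, normalised to untreated wells. Hill-fit Einf, AUC25 and GRinf are potency metrics; FIC50 and FIC90 are Loewe-additivity fractional inhibitory concentrations, given as log2 (negative = synergy). Replicates are averaged.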

[2] = test system: Mycobacterium tuberculosis Erdman (autoluminescent); assay: Einf, fitted maximum growth inhibition of combination (fraction); higher = stronger maximal inhibition
Procedure: as §1

[3] = test system: Mycobacterium tuberculosis Erdman (autoluminescent); assay: FIC90 (Loewe) at 90% inhibition (log2); higher = more antagonistic
Procedure: as §1

[4] = test system: Mycobacterium tuberculosis Erdman (autoluminescent); assay: GRinf, maximum normalised growth rate inhibition (unitless (-1 to 1)); higher = less effect (negative = killing)
Procedure: as §1

[5] = test system: Mycobacterium tuberculosis Erdman (autoluminescent); assay: FIC50 (Loewe) at 50% inhibition (log2); higher = more antagonistic
Procedure: as §1

NNC(=O)c1ccncc1 [isoniazid] + COc1c(N2C[C@@H]3CCCN[C@@H]3C2)c(F)cc2c(=O)c(C(=O)O)cn(C3CC3)c12 [moxifloxacin]
Settings | AUC25, [1] | Einf, [2] | FIC50, [5] | FIC90, [3] | GRinf, [4]
in vitro model: acidic pH 5.7, time point: constant (~7 days, model-specific) | 0.108 | 0.704 | 0.476 | – | -0.263
in vitro model: acidic pH 5.7, time point: terminal (~4-5 doublings, model-specific) | 0.0673 | 0.923 | 0.361 | 0.444 | -0.118
in vitro model: intracellular J774, time point: constant = terminal | – | 0.993 | – | 0.465 | -0.405

Settings | AUC25, [1] | Einf, [2] | FIC50, [5] | FIC90, [3] | GRinf, [4]
in vitro model: butyrate, time point: constant (~7 days, model-specific) | 0.0638 | 0.926 | 0.0921 | 0.134 | -0.0481
in vitro model: butyrate, time point: terminal (~4-5 doublings, model-specific) | 0.0457 | 0.969 | 0.0505 | -0.0232 | -0.0694
in vitro model: cholesterol 0.05 mM, time point: constant (~7 days, model-specific) | 0.121 | 0.756 | 0.0749 | – | -0.309
in vitro model: cholesterol 0.05 mM, time point: terminal (~4-5 doublings, model-specific) | 0.096 | 0.962 | 0.0269 | 0.468 | -0.301
in vitro model: cholesterol-high 0.2 mM, time point: constant (~7 days, model-specific) | 0.079 | 0.953 | 0.049 | 0.277 | -0.524
in vitro model: cholesterol-high 0.2 mM, time point: terminal (~4-5 doublings, model-specific) | 0.057 | 0.995 | 0.314 | 0.00349 | -0.639
in vitro model: dormancy (butyrate + nitrate, low O2), time point: constant (~7 days, model-specific) | 0.076 | 0.91 | 0.000113 | -0.385 | 0.143
in vitro model: dormancy (butyrate + nitrate, low O2), time point: terminal (~4-5 doublings, model-specific) | 0.0785 | 0.985 | 0.0985 | 0.553 | -0.158
in vitro model: standard 7H9 glycerol, time point: constant = terminal | 0.0762 | 0.981 | 0.317 | 0.332 | -0.218
in vitro model: valerate, time point: constant (~7 days, model-specific) | 0.0691 | 0.863 | 0.215 | – | 0.0468
in vitro model: valerate, time point: terminal (~4-5 doublings, model-specific) | 0.0467 | 0.94 | 0.279 | 0.294 | 0.0344

NNC(=O)c1ccncc1 [isoniazid] + NC(=O)c1cnccn1 [pyrazinamide]
Settings | AUC25, [1] | Einf, [2] | FIC50, [5] | FIC90, [3] | GRinf, [4]
in vitro model: acidic pH 5.7, time point: constant (~7 days, model-specific) | 0.097 | 0.857 | -0.176 | – | -0.422
in vitro model: acidic pH 5.7, time point: terminal (~4-5 doublings, model-specific) | 0.0846 | 0.977 | 0.19 | -0.784 | -0.338
in vitro model: intracellular J774, time point: constant = terminal | – | 0.964 | – | 0.267 | -0.218

Settings | AUC25, [1] | Einf, [2] | FIC50, [5] | FIC90, [3] | GRinf, [4]
in vitro model: butyrate, time point: constant (~7 days, model-specific) | 0.0844 | 0.931 | -0.141 | 0.439 | 0.0223
in vitro model: butyrate, time point: terminal (~4-5 doublings, model-specific) | 0.053 | 0.954 | -0.11 | -0.0985 | 0.0459
in vitro model: cholesterol 0.05 mM, time point: constant (~7 days, model-specific) | 0.112 | 0.758 | – | – | -0.252
in vitro model: cholesterol 0.05 mM, time point: terminal (~4-5 doublings, model-specific) | 0.119 | 0.951 | -0.117 | – | -0.372
in vitro model: cholesterol-high 0.2 mM, time point: constant (~7 days, model-specific) | 0.0915 | 0.908 | 0.321 | – | -0.322
in vitro model: cholesterol-high 0.2 mM, time point: terminal (~4-5 doublings, model-specific) | 0.0717 | 0.995 | 0.538 | 0.4 | -0.664
in vitro model: dormancy (butyrate + nitrate, low O2), time point: constant (~7 days, model-specific) | 0.0844 | 0.897 | -0.543 | -0.165 | 0.244
in vitro model: dormancy (butyrate + nitrate, low O2), time point: terminal (~4-5 doublings, model-specific) | 0.0579 | 0.984 | -0.16 | -0.412 | -0.119
in vitro model: standard 7H9 glycerol, time point: constant = terminal | 0.0332 | 0.861 | -0.124 | – | 0.248
in vitro model: valerate, time point: constant (~7 days, model-specific) | 0.0637 | 0.78 | -0.102 | – | 0.208
in vitro model: valerate, time point: terminal (~4-5 doublings, model-specific) | 0.0551 | 0.839 | 0.196 | 0.67 | 0.173

NNC(=O)c1ccncc1 [isoniazid] + O=[N+]([O-])c1cn2c(n1)OC[C@@H](OCc1ccc(OC(F)(F)F)cc1)C2 [pretomanid]
Settings | AUC25, [1] | Einf, [2] | FIC50, [5] | FIC90, [3] | GRinf, [4]
in vitro model: acidic pH 5.7, time point: constant (~7 days, model-specific) | 0.13 | 0.866 | 0.312 | – | -0.747
in vitro model: acidic pH 5.7, time point: terminal (~4-5 doublings, model-specific) | 0.0878 | 0.99 | 0.274 | 0.597 | -0.432
in vitro model: intracellular J774, time point: constant = terminal | – | 1 | – | 0.496 | -0.631

Settings | AUC25, [1] | Einf, [2] | FIC50, [5] | FIC90, [3] | GRinf, [4]
in vitro model: butyrate, time point: constant (~7 days, model-specific) | 0.0655 | 0.945 | 0.776 | 0.672 | -0.0657
in vitro model: butyrate, time point: terminal (~4-5 doublings, model-specific) | 0.0383 | 0.973 | 0.602 | 0.403 | -0.0769
in vitro model: cholesterol 0.05 mM, time point: constant (~7 days, model-specific) | 0.122 | 0.755 | 0.145 | – | -0.201
in vitro model: cholesterol 0.05 mM, time point: terminal (~4-5 doublings, model-specific) | 0.0915 | 0.922 | 5.18 | 0.199 | -0.242
in vitro model: cholesterol-high 0.2 mM, time point: constant (~7 days, model-specific) | 0.0893 | 0.875 | 0.379 | – | -0.127
in vitro model: cholesterol-high 0.2 mM, time point: terminal (~4-5 doublings, model-specific) | 0.0482 | 0.982 | 0.467 | 0.413 | -0.542
in vitro model: dormancy (butyrate + nitrate, low O2), time point: constant (~7 days, model-specific) | 0.0671 | 0.909 | 0.185 | 0.145 | 0.115
in vitro model: dormancy (butyrate + nitrate, low O2), time point: terminal (~4-5 doublings, model-specific) | 0.0588 | 0.983 | 0.103 | 0.303 | -0.198
in vitro model: standard 7H9 glycerol, time point: constant = terminal | 0.0602 | 0.928 | 0.303 | 0.248 | 0.0614
in vitro model: valerate, time point: constant (~7 days, model-specific) | 0.102 | 0.884 | 0.537 | 2.18 | -0.208
in vitro model: valerate, time point: terminal (~4-5 doublings, model-specific) | 0.0772 | 0.938 | 0.495 | 0.477 | 0.00535
